This is an account of results in patent US20100215618A1, “NOVEL COMPOUNDS - 644” (Arrow Therapeutics Limited, priority 2009, published 2010).

Where two headings read alike, the source gives them in different places. Bounds are passed on as bounds.

For data set [1], the system named is HCV replicon cells Huh 9B (genotype 1b). The experiment in a line: 1b Replicon Assay (luciferase readout). Type of data set: cell-based. The settings on record: Hepatitis C virus, Huh 9B replicon cells, 72 h, luciferase activity. As to the method:
(§1) HCV replicon cells Huh 9B (ReBlikon), containing the firefly luciferase-ubiquitin-neomycin phosphotransferase fusion protein and EMCV-IRES driven HCV polyprotein with cell culture adaptive mutations.
Cells were cultured at 37° C./5% CO2 and split twice a week. G418 at 0.5 mg/ml was added to the culture medium but not the assay medium.
The culture medium consisted of DMEM with […] glucose and Glutamax (Gibco 61965-026) supplemented with 1× non-essential amino acids (Invitrogen 11140-035), 0.5 mg/ml G418 (Invitrogen 10131-027) and 10% Australian foetal calf serum (Invitrogen 10099-141).
(§2) Replicon cells were trypsinised and counted. Cells were diluted to 100,000 cells/ml and 100 μl used to seed one opaque white 96-well plate (for the replicon assay) and one flat-bottomed clear plate (for the tox assay) for every five compounds to be tested for IC50. Wells G12 and H12 were left empty in the clear plate as the blank. Plates were then incubated at 37° C./5% CO2 for 24 h.
(§3) On the following day compound dilutions were prepared in medium at twice their desired final concentration in a clear round bottomed plate. All dilutions have a final DMSO concentration of 1%.
(§4) Controls and compounds were transferred from the dilution plates to the assay plates (containing the cells) at 100 μl/well in duplicate wells.
(§5) Exception: no compound was added to wells A1 and A2 of either plate and 100 μl of 1% DMSO was added to these instead. Plates were then incubated at 37° C./5% CO2 for 72 h.
At the end of the incubation time, the cells in the white plate were washed in PBS (100 μL per well) and dried by tapping before addition of 204 per well of lysis buffer (25 mM tris-phosphate, 8 mM MgCl2, 1 mM DTT, 1% Triton X-100, 15% glycerol; pH to 7.8 using KH2PO4 prior to Triton X-100 and glycerol addition). Aliquots of substrate (23.5 mM beetle luciferin (Promega E1603), 26 mM ATP (Sigma O-2060) in […] Tris buffer pH 7.8) were stored at −80° C. Prior to use, required amount of luciferin was thawed and diluted 1:50 in luciferase assay buffer (20 mM Tricine (Sigma T-0377), 1.07 mM magnesium carbonate hydroxide (Sigma M-5671), 0.1 mM EDTA (Sigma E-5134), 2.67 mM MgSO4(BDH 101514Y), 33.3 mM dithiothreitol (Sigma 150460) pH 7.8).
After 5-60 min incubation in lysis buffer at room temperature, a plate was inserted into the luminometer and 100 μl luciferase assay reagent was added by the injector of the luminometer. The signal was measured using a 1 second delay followed by a 4 second measurement programme. The IC50, the concentration of the drug required for reducing the replicon level by 50% in relation to the untreated cell control value, was calculated from the plot of the percentage reduction of the luciferase activity vs. drug concentration.

Data set [2] relates to HCV replicon cells Huh 9B. Type of data set: cell-based. The conditions noted are these: Huh 9B replicon cells, 72 h, methylene blue, total cell area reduced by 50%. As for the experimental part: as §1, §2, §3, §4, §5
The clear plate was stained with 100 μA 0.5% methylene blue in 50% ethanol at room temperature for 1 h, followed by solvation of the absorbed methylene blue in 100 μl per well of 1% lauroylsarcosine. Absorbance of the plate was measured on a microplate spectrophotometer (Molecular Devices) and the absorbance for each concentration of compound expressed as a proportion of the relative DMSO control. The TD50, the is concentration of drug required to reduce the total cell area by 50% relative to the DMSO controls, was calculated by plotting the absorbance at 620 nm after background substraction against drug concentration.

The subject of data set [3] is HCV genotype 1a replicon cells Htat2ANeo. The experiment in a line: 1a Replicon Assay (cell-based anti-NS5a ELISA). The settings on record: Hepatitis C virus, 72 h. As to the method:
HCV genotype la replicon cells Htat2ANeo (University of Texas), containing neomycin phosphotransferase fusion protein and EMCV-IRES driven HCV polyprotein with cell culture adaptive mutations, and control cells, Et2AN.
Cells were cultured at 37° C./5% CO2 and split twice a week. G418 at 0.5 mg/ml and Blastocidin at 2 mg/ml were added to the culture medium but not the assay medium.
The culture medium consisted of DMEM with […] glucose and Glutamax (Gibco 61965-026) supplemented with 1× non-essential amino acids (Invitrogen 11140-035), 0.5 mg/ml G418 (Invitrogen 10131-027), 2 mg/ml Blastocidin (PAA) and 10% is Australian foetal calf serum (Invitrogen 10099-141).
Replicon and control cells were trypsinised and counted. Replicon cells were diluted to 90,000 cells/ml and 100 μl of this used to seed columns 2-4, […] and 10-12 of a black, clear bottom 96-well plate for every three compounds to be tested for IC50. Control cells were diluted to 60,000 cells/ml and 100 μl of this used to seed columns 1, 5 and 9 of the plate. Well H1 was left empty as the blank. Plates were then incubated at 37° C./5% CO2 for 24 h.
On the following day compound dilutions were prepared in medium at twice their desired final concentration in a clear round bottomed plate.
Controls and compounds were transferred from the dilution plate to the assay plates (containing the cells) at 100 μl/well in quadruplicate wells, one well containing control cells and 3 wells containing replicon cells.
Exception: no compound was added to row H of the plate and 100 μl of 1% DMSO was added to these instead. Plates were then incubated at 37° C. with 5% CO2 for 72 h. At the end of the incubation time, any reduction in cell viability was assayed and a cell-based enzyme linked immunosorbent assay (ELISA) was performed. The media/compound was removed from all wells and replaced with 100 μl/well serum-free media and 20 μl/well Cell Titre Blue (Promega G8081). Following incubation at 37° C./5% CO2 for 2 h plates were read on a microplate fluorometer (Molecular Devices) using an excitation of 570 nm and an emission of 590 nm The TD50, the concentration of drug required to reduce 50% of Cell Titre Blue relative to the DMSO controls, was calculated by plotting the fluorescence at 590 nm after substraction of background against drug concentration.
The media/Cell Titre Blue was removed and plates washed in PBS and gently tapped dry before addition of 50 μL per well of 75% acetone/25% methanol mixture for 3 minutes. The fixative was then discarded and wells were washed with PBS before addition of 100 μl/well of blocking solution (2% non-fat dry milk and 0.05% Tween-20 in 0.85% NaCl). Plates were then incubated at 37° C. in a shaking incubator for 60 min. Blocking solution was discarded and 50 μl of mouse anti-NS5a antibody (Virostat 1877) at 1:100 dilution in blocking buffer was added to all wells. Plates were incubated at 37° C. in a shaking incubator for 90 min Antibody was then discarded and plates were washed 4 times by immersion in 0.85% NaCl/0.05% Tween-20. After washing plates were tapped dry gently and 50 μl of secondary antibody (Dako P0260 Rabbit anti-mouse horseradish peroxidase) at 1:1000 dilution in blocking buffer was added to the wells. Plates were incubated at 37° C. in a shaking incubator for 60 min. Antibody was discarded and plates were washed 6 times by immersion in 0.85% NaCl/0.05% Tween-20 and once in PBS. Finally, 50 μl of substrate (SigmaFast ortho-phenylene diamine dihydrochloride (OPD)) was added per well and the colorimetric reaction was allowed to proceed in the dark for 5 to 15 minutes depending on the strength or the signal. The reaction was stopped by addition of 25 μl/well of 20% sulphuric acid. Plates were read on the SpectraMax microplate reader at 490 nm fixed wavelength. […]
In general terms: A replicon is a self-replicating genome or part of one, used to study replication in cells.

Where [4] appears, read: read-out: pIC50 1b Replicon (converted).
Setting [5] is: read-out: pIC50 1a Replicon (converted).

As to `CC(C)(C)OC(=O)N[C@H](C(=O)N1CCC[C@H]1c1ncc(-c2ccc(-c3ccc(C(=O)Nc4ccc(CN5CCS(=O)(=O)CC5)cc4)cc3)cc2)[nH]1)c1ccccc1` [Example 1, Tert-butyl N-[(1S)-2-[(2S)-2-[5-[4-[4-[[4-[(1,1-dioxo-1,4-thiazinan-4-yl)methyl]phenyl]carbamoyl]phenyl]phenyl]-1H-imidazol-2-yl]pyrrolidin-1-yl]-2-oxo-1-phenyl-ethyl]carbamate], the IC50 in data set [1] (read-out: HCV IC50 1b Replicon) is 0.01 nM; in data set [1] (setting [4]), 0.0138 nM; in data set [3] (read-out: HCV IC50 Elisa 1a), 41.4 nM; in data set [3] (setting [5]), 41.7 nM. Besides, the “HCV TD50 Replicon” value in data set [2] was over 25 µM.

On to `COC(=O)N[C@@H](C)C(=O)N1CCC[C@H]1c1ncc(-c2ccc(-c3ccc(C(=O)Nc4ccc(CN5CCS(=O)(=O)CC5)cc4)cc3)cc2)[nH]1` [Example 4, Methyl N-[(1S)-2-[(2S)-2-[5-[4-[4-[[4-[(1,1-dioxo-1,4-thiazinan-4-yl)methyl]phenyl]carbamoyl]phenyl]phenyl]-1H-imidazol-2-yl]pyrrolidin-1-yl]-1-methyl-2-oxoethyl]carbamate], for which the IC50 is 1.18 nM in data set [1] (read-out: HCV IC50 1b Replicon), 1.17 nM in data set [1] (setting [4]), 25.9 nM in data set [3] (read-out: HCV IC50 Elisa 1a) and 25.7 nM in data set [3] (setting [5]). The “HCV TD50 Replicon” value in data set [2] stood at 22.44 µM.

Turning to `COC(=O)N[C@@H](C(=O)N1CCC[C@H]1c1ncc(-c2ccc(-c3ccc(C(=O)Nc4ccc(CN5CCS(=O)(=O)CC5)cc4)cc3)cc2)[nH]1)[C@H](C)O` [Example 18, Methyl N-[(1R,2S)-1-[(2S)-2-[5-[4-[4-[[4-[(1,1-dioxo-1,4-thiazinan-4-yl)methyl]phenyl]carbamoyl]phenyl]phenyl]-1H-imidazol-2-yl]pyrrolidine-1-carbonyl]-2-hydroxy-propyl]carbamate], the IC50 in data set [1] (read-out: HCV IC50 1b Replicon) and in data set [1] (setting [4]) was 126 nM each time. The “HCV TD50 Replicon” value in data set [2] was over 25 µM.

Turning to `COC(=O)N[C@H](CO)C(=O)N1CCC[C@H]1c1ncc(-c2ccc(-c3ccc(C(=O)Nc4ccc(CN5CCS(=O)(=O)CC5)cc4)cc3)cc2)[nH]1` [Example 19, Methyl N-[(1R)-2-[(2S)-2-[5-[4-[4-[[4-[(1,1-dioxo-1,4-thiazinan-4-yl)methyl]phenyl]carbamoyl]phenyl]phenyl]-1H-imidazol-2-yl]pyrrolidin-1-yl]-1-(hydroxymethyl)-2-oxo-ethyl]carbamate], the IC50 in data set [1] (read-out: HCV IC50 1b Replicon) is 43.2 nM; in data set [1] (setting [4]), 43.7 nM. Besides, the “HCV TD50 Replicon” value in data set [2] was 21.4 µM.

With `COC(=O)N[C@@H](C(=O)N1CCC[C@@H]1c1ncc(-c2ccc(-c3ccc(C(=O)Nc4ccc(CN5CCS(=O)(=O)CC5)cc4)cc3)cc2)[nH]1)C(C)C` [Example 27, methyl N-[(1R)-1-[(2R)-2-[5-[4-[4-[[4-[(1,1-dioxo-1,4-thiazinan-4-yl)methyl]phenyl]carbamoyl]phenyl]phenyl]-1H-imidazol-2-yl]pyrrolidine-1-carbonyl]-2-methyl-propyl]carbamate], the results for the IC50 in data set [1] (read-out: HCV IC50 1b Replicon) and in data set [1] (setting [4]) were 15.3 nM and 15.1 nM, respectively. The “HCV TD50 Replicon” value in data set [2] was over 25 µM.

In the case of `COC(=O)N[C@H](C(=O)N1CCCC[C@H]1c1ncc(-c2ccc(-c3ccc(C(=O)Nc4ccc(CN5CCS(=O)(=O)CC5)cc4)cc3)cc2)[nH]1)c1ccccc1` [Example 51, Methyl N-[(1S)-2-[(2S)-2-[5-[4-[4-[[4-[(1,1-dioxo-1,4-thiazinan-4-yl)methyl]phenyl]carbamoyl]phenyl]phenyl]-1H-imidazol-2-yl]-1-piperidyl]-2-oxo-1-phenyl-ethyl]carbamate], the IC50 in data set [1] (read-out: HCV IC50 1b Replicon) was 0.79 nM; in data set [1] (setting [4]) it was 0.794 nM; in data set [3] (read-out: HCV IC50 Elisa 1a), 95 nM; in data set [3] (setting [5]), 95.5 nM.

Turning to `CC(C)(C)OC(=O)N[C@H](C(=O)N1CCCC[C@H]1c1ncc(-c2ccc(-c3ccc(C(=O)Nc4ccc(CN5CCS(=O)(=O)CC5)cc4)cc3)cc2)[nH]1)c1ccccc1` [Example 52, tert-Butyl N-[(1S)-2-[(2S)-2-[5-[4-[4-[[4-[(1,1-dioxo-1,4-thiazinan-4-yl)methyl]phenyl]carbamoyl]phenyl]phenyl]-1H-imidazol-2-yl]-1-piperidyl]-2-oxo-1-phenyl-ethyl]carbamate], the IC50 in data set [1] (read-out: HCV IC50 1b Replicon) was 0.41 nM; in data set [1] (setting [4]), 0.407 nM; in data set [3] (read-out: HCV IC50 Elisa 1a) it was 185 nM; in data set [3] (setting [5]), 186 nM.

On to `CN(C)[C@@H](C(=O)N1CCCC[C@H]1c1ncc(-c2ccc(-c3ccc(C(=O)Nc4ccc(CN5CCS(=O)(=O)CC5)cc4)cc3)cc2)[nH]1)c1ccccc1` [Example 53, 4-[4-[2-[(2S)-1-[(2R)-2-(dimethylamino)-2-phenyl-acetyl]-2-piperidyl]-1H-imidazol-5-yl]phenyl]-N-[4-[(1,1-dioxo-1,4-thiazinan-4-yl)methyl]phenyl]benzamide], for which the IC50 in data set [1] (read-out: HCV IC50 1b Replicon) is 0.82 nM; in data set [1] (setting [4]), 0.813 nM; in data set [3] (read-out: HCV IC50 Elisa 1a), 324 nM; in data set [3] (setting [5]), 324 nM.
